Experimental data: ChEMBL document CHEMBL3988442, “University of Dundee, Small-Polar-MMV Screening Library” (2021)
Several values for one entry are separate records, joined by “and”; a condition that tells them apart may be missing. Equal entries are not always repeated.

Assays:
[1] = microbe, parasite or virus in culture; conditions: Mycobacterium tuberculosis, 72 h, read-out: pIC50 (converted)
[2] = microbe, parasite or virus in culture; conditions: Mycobacterium tuberculosis, 96 h, read-out: pIC50 (converted)
Histidine--tRNA ligase = target: T1, Histidine--tRNA ligase (Leishmania infantum, UniProt A4I591); assay: Leishmania infantum Histidine tRNA synthetase (LdHisRS); type: functional
T1 sequence (A4I591 whole entry): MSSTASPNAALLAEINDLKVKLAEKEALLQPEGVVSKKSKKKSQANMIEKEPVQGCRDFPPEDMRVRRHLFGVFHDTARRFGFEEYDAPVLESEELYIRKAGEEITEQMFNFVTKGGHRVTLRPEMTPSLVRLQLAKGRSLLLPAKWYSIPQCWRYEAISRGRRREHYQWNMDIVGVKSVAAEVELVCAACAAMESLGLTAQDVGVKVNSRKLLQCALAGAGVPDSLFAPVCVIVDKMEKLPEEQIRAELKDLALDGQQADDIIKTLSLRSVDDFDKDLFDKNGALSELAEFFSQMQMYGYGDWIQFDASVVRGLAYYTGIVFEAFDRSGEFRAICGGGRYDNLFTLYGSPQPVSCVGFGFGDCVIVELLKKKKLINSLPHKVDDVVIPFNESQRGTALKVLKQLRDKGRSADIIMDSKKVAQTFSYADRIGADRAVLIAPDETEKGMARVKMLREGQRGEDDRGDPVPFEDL

Plasmodium falciparum = assay: Calibr Malaria Delayed Death Assay SOP; type: functional, organism-based; conditions: for IC50: Plasmodium falciparum

Row | Compound | IC50 [1] [µM] | IC50 [2] [µM] | IC50 (Histidine--tRNA ligase) | pIC50 (Plasmodium falciparum) | IC50 (Plasmodium falciparum) [µM]
1 | Fc1cccc(N2C[C@H]3CCN(c4cccnc4)C[C@H]3C2)c1 | 45.2 | > 50.1 | 40.6 µM and 35.1 µM |  | 
2 | c1ccc2c(c1)CCN(c1nc(-c3ccncc3)nc3c1CCNC3)C2 | 49.7 | > 50.1 | 9.69 µM and 11.1 µM |  | 
3 | c1ccc(Oc2ccc(OC34CCCN(CC3)C4)cc2)cc1 (centres undefined) | 23.7 | 40.7 | 39.4 µM and 40.6 µM |  | 
4 | COc1ccccc1C1(CNCc2cccc(C#N)c2)CCOCC1 |  |  | 70.8 µM and 65.6 µM | 5.883 | 1.49
5 | c1ccc(Oc2cccc(OC34CCCN(CC3)C4)c2)cc1 (centres undefined) | 18.1 | 15.9 | 53.2 µM and 46.4 µM |  | 
6 | Cc1nc(CN2CCc3nc(N4CCCC4)nc(NC(C)C)c3C2)cs1 | 41.6 | 25.4 | 14.7 µM and 12.1 µM |  | 
7 | c1ccc(-c2cc(CN3C[C@@H]4CC[C@H](C3)N(CC3CCC3)C4)on2)cc1 | 8.42 | 13.3 | 32.5 µM and 36.9 µM |  | 
8 | CC(C)c1nc(CC(=O)Nc2nc(CN3CCCCCC3)cs2)cs1 | 23.2 | 21.2 | 39.8 µM and 33.5 µM |  | 
9 | CN(C)c1nc2c(c(N3CCc4ccccc4C3)n1)CCNC2 | 31.3 | > 50.1 | 28.8 µM and 22.8 µM |  | 
10 | COc1cccn(CC(=O)N(C)CCC2CCOCC2)c1=O |  | > 50.1 | > 100 µM |  | 
11 | CN(CC1CCN(c2ccccc2)C1)c1ccc(Cn2ccnc2)cn1 (centres undefined) | 27.7 | 27.4 | 91.9 µM and 98.7 µM |  | 
12 | Clc1ccc(C2(CNC3=NCCN3)CCCCC2)cc1.I |  |  | 85 µM and 71.6 µM | 6.717 and 7.044 | 
13 | Cc1nc(CN2CCc3nc(NC(C)C)nc(C)c3C2)cs1 | > 50.1 | > 50.1 | 64.5 µM and 57.7 µM |  | 
14 | c1cncc(-c2ccc3c(c2)CCC32CCN(Cc3nccs3)CC2)c1 | 36.1 | 36.3 | 75.2 µM and 52.4 µM |  | 
15 | c1ccc2sc(N3CCCN(c4ncnc5c4CCNC5)CC3)nc2c1 |  |  | 76.9 µM and 73.9 µM | 5.791 | 1.56
16 | Brc1ccc(C2(CNCc3cc[nH]c3)CCOCC2)cc1 |  |  | 39.5 µM and 23.5 µM | 6.139 | 0.542
17 | CCCN1C[C@H]2CC[C@@H]1CN(Cc1ccc(-n3cccn3)cc1)C2 | 4.84 | 21.4 | 33.2 µM and 35 µM |  | 
18 | CSc1ccc(C(CN)N2CCc3sccc3C2)cc1 (centres undefined) | 27.4 | 24.1 | 73.8 µM and 73.2 µM |  | 
19 | Cc1ccc(S(=O)(=O)N2CCc3nc(C4CCNCC4)ncc3C2)cc1 | > 50.1 | 6.39 | > 100 µM and 97.1 µM |  | 
20 | Cc1ccc(C)c(OC(C)C(=O)NCCNc2cccnc2)c1 (centres undefined) |  |  | 23.4 µM and 28.9 µM |  | 
21 | Cn1nc2c(cc1=O)CN(c1nc3ccccc3s1)CC2 |  |  | 72.4 µM and 80.9 µM |  | 
22 | O=C1CC(c2ccc(C(=O)O)cc2)c2ncn(-c3ccc(F)cc3)c2N1 (centres undefined) |  |  | 15 µM and 21.9 µM |  | 
23 | Cn1ccnc1-c1cn(CCCc2csc(N)n2)nn1 |  |  | > 100 µM |  | 
24 | CCn1nnc2c1C(COC)CN(Cc1ccco1)C2 (centres undefined) |  |  | > 100 µM |  | 

Row | Compound | IC50 [1] [µM] | IC50 [2] [µM] | IC50 (Histidine--tRNA ligase) | pIC50 (Plasmodium falciparum) | IC50 (Plasmodium falciparum) [µM]
25 | Cc1nc(N2CCCC2)nc2c1CCN(C(=O)C1CCC1)CC2 |  |  | > 100 µM |  | 
26 | Cc1ccc(C(=O)N2CCN(C(=O)NC(C)Cn3ccnc3)CC2)o1 (centres undefined) |  |  | > 100 µM |  | 
27 | Cn1nc2c(cc1=O)CN(Cc1nc(-c3ccco3)no1)CC2 |  |  | 11.8 µM and 14 µM |  | 
28 | CCCc1ccc(OC23CCCN(CC2)C3)c(OC)c1 (centres undefined) | 23.5 | 22.7 | 38 µM and 39.5 µM |  | 
29 | Cc1cccnc1[C@H](C)Nc1nc(-c2cccnc2)nc2c1CNC2 |  |  | 36.4 µM and 22.4 µM | 5.936 | 0.951
30 | Cc1ccccc1N1CCN(c2nc(N(C)C)nc3c2CCNC3)CC1 | 26 | 27 | 55.3 µM and 91.3 µM |  | 
31 | Cc1cc(C(=O)Nc2cccn(Cc3ccc(F)cc3)c2=O)on1 |  |  | 12.9 µM and 11.3 µM |  | 
32 | O=C(NCC1CC1)c1cc2c(s1)CCN2c1ncccn1 |  |  | 63 µM and 54 µM |  | 
33 | CC(=O)Cc1c(C)nn(-c2cncc(N)c2)c1C |  |  | 33.4 µM and 30.1 µM |  | 
34 | Cc1nnc2n1CCN(C(=O)c1ccc(Cn3cccc3)cc1)C2 |  |  | 51.2 µM and 44 µM |  | 
35 | O=C1CC(c2ccc(C(=O)O)cc2)c2ncn(-c3ccccc3)c2N1 (centres undefined) |  |  | 17.3 µM and 20.1 µM |  | 
36 | CN(C)C(=O)CN1CCCC1c1cccc(Cc2ccccc2F)n1 (centres undefined) |  |  | 61.1 µM and 51.2 µM |  | 
37 | COCCOc1ccccc1C(=O)N1CCCCC1c1nccs1 (centres undefined) |  |  | 51.1 µM and 64.2 µM |  | 
38 | Cn1cccc(NC(=O)NCCc2cccc(O)c2)c1=O |  |  | 15.5 µM and 13 µM |  | 
39 | O=c1c2ccccc2nc2n1C(CSc1ccc(Br)cc1)CN2 (centres undefined) |  |  | > 100 µM |  | 
40 | COc1cccc(N2CCN(Cc3cccc(CCN)c3)CC2=O)c1 |  |  | 23.3 µM and 28.2 µM |  | 
41 | COc1ccc(C(=O)N2CCN(c3cc(CCN)nc(C)n3)CC2)cc1 |  |  | 49.3 µM and 51.2 µM |  | 
42 | Nc1nnc(SCC(=O)c2cc3c(cc2Cl)NC(=O)C3)s1 |  |  | > 100 µM and 77.9 µM |  | 
43 | Cc1ncc2c(n1)CN(Cc1nnc(-c3occc3C)o1)CC2 |  |  | 64.7 µM and 82.6 µM |  | 
44 | CN(C)[C@@H]1C[C@@H](CO)N(C(=O)Nc2ccc(SC(F)(F)F)cc2)C1 |  |  | > 100 µM |  | 
45 | Cc1nc(CN(C)C2CCN(Cc3ccc4ccccc4n3)C2)no1 (centres undefined) |  |  | 59.9 µM and 39.8 µM |  | 
46 | c1cncc(-c2ccc3c(c2)C2(CC3)CCN(c3nncs3)CC2)c1 |  |  | 32.5 µM and 45.4 µM |  | 
47 | O=C1CC(c2ccc(C(=O)O)cc2)c2ncn(-c3cccc(Cl)c3)c2N1 (centres undefined) |  |  | 20.7 µM and 26.5 µM |  | 
